Experiment [1] deals with PC3 cells. The experiment is described as follows: Lipid raft disruption, cholesterol staining. The format is cell-based, human. The following applies: 1 μM, 24 h.
Procedure: PC3 cells were treated with vehicle control or 1 μM Filipin for 24 h. The treated cells were visualized under a fluorescence microscope. The treated cells were stained with Filipin III and representative images were taken.
Experiment [2] relates to PC3 or DU145 cells. The experiment can be described thus: Lipid raft disruption, Src kinase in EVs by immunoblotting. The format is cell-based, human. The following applies: 0-1 μM, 24 h.
Procedure: PC3 and DU145 cells were grown overnight. The medium was replaced with the same growth medium but containing EVs/exosome-free FBS with DMSO (control) or Filipin III (0-1 μM) for 24 h to disrupt lipid rafts. The EVs were isolated from the conditioned medium by sequential centrifugation as described above. The isolated EVs and cells were lysed with RIPA buffer for immunoblotting analysis.
In experiment [3] the test system is DU145, NIH 3T3, SYF1, 22Rv1 cells. The experiment can be described thus: Encapsulation of Src family kinase variants into EVs of transduced cells (Western blot, EVs vs TCL). The format is cell-based. The following applies: for levels of Fyn kinase in EVs: in comparison with Fyn(WT). The method, then: The transfected cells were grown in exosome-free FBS medium and EVs were isolated from the conditioned medium. […] Ten μg of protein from EVs or TCL were loaded. Src protein levels were quantified by Image J software. […] Data were expressed as mean±SEM, ** p<0.01; *** p<0.001. […] The transduced cells were grown in EVs/exosome-free FBS medium with (Lane 4-6 and 10-12) or without (Lane 1-3 and 7-9) 50 μM myristic acid-azide (an analog of myristic acid). The myristoylated proteins from either EVs or TCL were detected using Click chemistry. Ten μg of protein from EVs or TCL were loaded.
EVs were isolated from conditioned medium by sequential ultracentrifugation. […] Ten μg of protein from EVs or TCL were loaded. […] Coomassie staining was used to show equivalent loading of samples. The Src expression level was quantified by Image J software. Data are expressed as mean±SEM, * p<0.05; ** p<0.01; *** p<0.001.
The transduced cells were grown in EVs/exosome-free medium for 24 h and EVs were isolated from the conditioned medium. Ten μg of protein from extracellular vesicles (EVs) or total cell lysates (TCL) were loaded. […] Data are expressed as mean±SEM. * p<0.05; **** p<0.0001; NS: Not significant.
The transduced cells were grown in exosome-free FBS medium. EVs were collected from the conditioned cell culture medium. Expression levels of Src in extracellular vesicles (EVs) and total cell lysates (TCL) from the transduced cells were evaluated by Western blotting. 10 μg of protein from Exo or TCL were loaded. […] The Src protein was quantified by Image J software. […] Data are expressed as mean±SEM. ** p<0.01.
To isolate EVs from the cell culture medium, the cell lines were grown in ATCC recommended medium in a 150-mm petri-dish. […] The size, zeta potential, and concentration of EVs were measured by nanoparticle tracking analysis (NTA, Particle Metrix, Germany) with ZetaView software for data record and analysis.
The total cell lysate and EVs dissolved in RIPA buffer were subjected to the standard immunoblotting analysis. […] The band intensity was quantified by Image J software.
On the technique in general: A western blot detects proteins with antibodies after separation by electrophoresis.

Experiment [4] has as its target T1, full length NMT1 protein (Homo sapiens, UniProt P30419).
T1 construct: Km and Vmax catalyzed by full length NMT1 protein were calculated
T1 sequence (P30419 1-496): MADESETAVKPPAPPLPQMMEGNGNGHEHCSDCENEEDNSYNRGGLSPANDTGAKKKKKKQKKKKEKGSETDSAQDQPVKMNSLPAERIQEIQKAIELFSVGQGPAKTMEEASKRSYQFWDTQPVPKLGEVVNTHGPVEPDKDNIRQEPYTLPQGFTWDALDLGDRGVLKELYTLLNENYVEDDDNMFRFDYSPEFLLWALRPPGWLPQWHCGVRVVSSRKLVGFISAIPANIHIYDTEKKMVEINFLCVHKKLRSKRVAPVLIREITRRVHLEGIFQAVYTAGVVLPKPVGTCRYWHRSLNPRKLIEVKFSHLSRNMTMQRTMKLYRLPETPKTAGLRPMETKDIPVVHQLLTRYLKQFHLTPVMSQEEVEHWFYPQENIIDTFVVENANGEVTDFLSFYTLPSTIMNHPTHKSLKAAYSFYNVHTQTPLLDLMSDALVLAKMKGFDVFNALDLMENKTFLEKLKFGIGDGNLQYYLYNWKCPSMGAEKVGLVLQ
The experiment can be described thus: NMT1 activity assay (CoA release, fluorescence).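 Also: released CoA from NMT1-catalysed myristoylation of octapeptide substrates detected by fluorescence after reaction with a maleimide coumarin dye (excitation 390 nm, emission 479 nm), triplicate points.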 The format is biochemical. The following applies: octapeptide as NMT1 substrate.
Procedure: The amount of the released CoA were reacted with 7-diethylamino-3-(4′-maleimidylphenyl)-4-methylcoumarin. The assay was performed in 96-well black microplates. The produced fluorescence intensity was measured by Flex Station 3, and detected by microplate reader (excitation at 390 nm; emission at 479 nm).
The amount of the released CoA were reacted with 7-diethylamino-3-(4′-maleimidylphenyl)-4-methylcoumarin. The assay was performed in 96-well black microplates. The produced fluorescence intensity was measured by Flex Station 3, and detected by microplate reader (excitation at 390 nm; emission at 479 nm). To measure the Km and Vmax of NMT1 which catalyzed various octapeptides substrates derived from various proteins, twenty-five octapeptides were synthesized by GenScript. […] Each data point has three repeats.
Km and Vmax catalyzed by full length NMT1 protein were calculated.

Consider `CCCCC[C@@H](O)[C@H]1C(=O)O[C@H](C)[C@@H](O)/C=C/C=C/C=C/C=C/C=C(\C)[C@@H](O)C[C@H](O)C[C@H](O)C[C@H](O)C[C@H](O)C[C@H](O)C[C@@H]1O` [Filipin III], for which, in experiment [1], the cholesterol levels entry is on record as “significantly decreased”. Moreover, the “expression levels of Src kinase in EVs” value in experiment [2] is on record as “did not significantly change”.
For the molecule “Fyn(C3S/C6S): Fyn mutant with loss of palmitoylation (GSVQSK)”, the “levels of Fyn kinase in EVs” value in experiment [3] is recorded as “significantly increased”.
Still for that read-out and setting: the entry for “Fyn(G2A): Fyn mutant with loss of myristoylation (ACVQCK)” is “significantly inhibited”.
Turning to Fyn(WT): wild type Fyn kinase (GCVQCK), in experiment [3], the “levels of kinase in EVs in comparison with total cell lysate” value is on record as “decreased”.
For the molecule GQSQSGGH (SEQ ID NO: 364) [PSMC1], in experiment [4], the Km – broadly, the substrate concentration at which the rate is half of its maximum – was determined as 40 µM and the Vmax (commonly the rate approached at saturating substrate) is 9.6 µM/min.
On to GSCCSCPD (SEQ ID NO: 370) [FRS2], for which, in experiment [4], the Michaelis constant (Km) came to 28.2 µM and the Vmax is 54.7 µM/min.

For the origin of these results see US20220195455A1, “DELIVERY OF CRISPR/MCAS9 THROUGH EXTRACELLULAR VESICLES FOR GENOME EDITING” (University of Georgia Research Foundation, Inc., priority 2019, published 2022).
